Molecular target: T1, Hsp60β (Sulfolobus acidocaldarius, UniProt Q9V2T4)
T1 sequence (Q9V2T4 1-553): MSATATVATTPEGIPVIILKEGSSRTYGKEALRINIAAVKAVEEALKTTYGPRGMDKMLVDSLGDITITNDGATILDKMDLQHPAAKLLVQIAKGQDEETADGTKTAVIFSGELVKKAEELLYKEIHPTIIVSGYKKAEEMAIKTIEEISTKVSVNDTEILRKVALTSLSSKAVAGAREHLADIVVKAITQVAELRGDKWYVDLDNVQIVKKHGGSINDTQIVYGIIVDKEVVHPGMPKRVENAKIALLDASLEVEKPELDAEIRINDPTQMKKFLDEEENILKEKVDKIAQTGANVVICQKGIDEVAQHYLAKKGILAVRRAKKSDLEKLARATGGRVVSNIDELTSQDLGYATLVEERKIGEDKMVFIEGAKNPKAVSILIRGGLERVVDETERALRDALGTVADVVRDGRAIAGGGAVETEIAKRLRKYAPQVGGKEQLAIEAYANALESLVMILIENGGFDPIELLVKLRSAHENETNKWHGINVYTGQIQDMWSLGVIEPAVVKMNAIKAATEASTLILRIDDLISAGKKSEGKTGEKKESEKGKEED
Test: FRET titration, tryptophan donor to MANT acceptor
Format: binding

Kd: 77.2 ± 3.8 µM
SMILES: CNc1ccccc1C(=O)O[C@H]1[C@@H](O)[C@H](n2cnc3c(N)ncnc32)O[C@@H]1CO[P@@](=O)(O)O[P@](=O)(O)OP(=O)(O)O [MANT-ATP, 2’/3’-(N-methyl-anthraniloyl)-adenosine-5’-triphosphate]

Reference: article doi:10.1101/2024.01.14.575554v1 (biorxiv, 2024)
